Source: patent publication US9458203B2, “Integrin-blocking polypeptides and uses thereof” (priority 2011, dated 2016)
“And” between values parts separate entries of the source, which are not always exact repeats. Identical values can stand only once. Like-named read-outs stand apart in the source and are kept apart here.

Key:
[1] = tested on: human liver cancer SMMC-7721
Procedure: (§1) Taking a certain amount of vigorously growing tumor tissue, grinding the tumor tissue under sterile conditions and preparing cell suspension at the concentration of 1×10^7 cells/ml; then hypodermicaly inoculating 0.1 ml of the cell suspension into the right axillary region of nude mice. Keeping measuring the diameter of the transplanted tumor with a vernier caliper, and randomly dividing the mice into groups when the volume of the tumor reached 100-200 mm^3. Observing the dynamic effect of integrin-blocking polypeptides on inhibiting the growth of the tumor by means of documenting the change of tumor diameters. Measuring the tumor diameter once every other day and recording the body weight of mice simultaneously. Intravenously injecting polypeptides to mice from test groups while administering equal quantity of physiological saline to mice from the negative control group. The total medication period was 14 days. Avastin was adopted to set up a positive control group; it was administered through the tail vein once every three days while all other drugs were administered through the tail vein once a day. Leaving mice for a one-week rest after 14 days' medication, then (21 days after medication) killing the mice, surgically dissecting the tumors and measuring the weight of tumors. The tumor volume (TV) was calculated in accordance with the following formula: TV=½×a×b^2
(§2) Taxol used in the positive control group was administered once every 3 days through tail vein injection, while drugs of all other groups were administered on daily basis through tail vein injection.

[2] = tested on: human rectal cancer Colo 320
Procedure: as §1, §2

[3] = tested on: human brain tumor SF763
Procedure: as §1, §2

[4] = tested on: human umbilical vein endothelial cells (HUVECs); experiment: inhibition of capillary formation of HUVECs (matrigel); type: cell-based; conditions: 10 μg/ml; for inhibition at 10 µg/mL: Homo sapiens, HUVEC, read-out: inhibition rate (%) of capillary formation
Procedure: Thawing 10 mg/mL matrigel (BD Company, USA) stocked at −20° C. overnight at 4° C., diluting it with HUVEC culture medium at the ratio of 1:1; smearing 30 μl of the solution on a 96-well plate (Greiner Company, USA), placing the plate at a 37 incubator for 1 h of aggregation. Digesting the HUVECs with 0.2% ethylene diamine tetraacetic acid (EDTA) when they reached the logarithmic phase; collecting the cells and washing them with PBS buffer twice, and then resuspending the cells with blank HUVEC culture medium. Counting the cells under a microscope, adjusting the cell concentration to 1×10^5 cells/ml. Preparing the testing solution for all groups, and diluting with blank HUVEC culture medium to 100 μl. Seeding the cells into the 96-well plate, 100 μl for each well, adding also the testing solution into each well and incubating the cells in 5% CO2 at 37° C. After 6 h, 12 h, 24 h, 36 h, 48 h, 60 h of incubation, randomly choosing 5 FOVs for each dose, photographing and counting the cells; calculating the number of capillary structures at different doses and analyzing the inhibition effect of polypeptide II and polypeptide III on HUVECs' differentiating into capillaries. The inhibition rate of capillary formation was calculated in accordance with the following formula: […]
wherein Ntest is the number of capillary structures in the test groups while Ncontrol is the number of capillary structures in the negative control group.

[5] = tested on: human endometrial cancer HHUA
Procedure: as §1, §2

[6] = tested on: human lung cancer H460
Procedure: as §1, §2

[7] = tested on: melanoma B16F10; experiment: transplanted melanoma B16F10 in C57BL/6 black mice
Procedure: Hypodermically injecting polypeptides and other drugs into the left axillary region of mice from the experimental groups respectively while administering only equal quantity of physiological saline to the mice from the negative control group. The total medication period was 14 days, during which cyclophosphamide was administered once every other day, taxol once every three days, low-dose polypeptide twice a day and all other drugs once a day.

[8] = 10 mg/kg/time, tail vein once every 3 days
[9] = positive control, tail vein once every 3 days
[10] = taxol 10 mg/kg/time, once every 3 days, tail vein injection

## CC(=O)O[C@H]1C(=O)[C@@]2(C)[C@H]([C@H](OC(=O)c3ccccc3)[C@]3(O)C[C@H](OC(=O)[C@H](O)[C@@H](NC(=O)c4ccccc4)c4ccccc4)C(C)=C1C3(C)C)[C@]1(OC(C)=O)CO[C@@H]1C[C@@H]2O [taxol, reference compound]
[1]; [8]
  tumor inhibition rate: 78.10%
  tumor weight: 0.28 ± 0.05 g
[1]; mouse, in vivo
  body weight of animals, in words: greatly reduced the body weight
  toxic and side effects, in words: more apparent toxic and side effects
[2]; mouse, in vivo
  body weight of animals, in words: greatly reduced the body weight
  toxic and side effects, in words: more apparent toxic and side effects
[2]; [9]
  inhibition rate on tumor: 76.62%
[2]; [10]
  tumor inhibition rate: 76.62%
  tumor weight: 0.29 ± 0.07 g
[3]; mouse, in vivo
  body weight of animals, in words: greatly reduced the body weight
  toxic and side effects, in words: more apparent toxic and side effects
[3]; [9]
  inhibition rate on tumor: 76.29%
[3]; [10]
  tumor inhibition rate: 76.29%
  tumor weight: 0.28 ± 0.07 g
[4]; 6 h
  number of capillary structures (mean ± SD): 0.0 ± 0.0
  inhibition at 10 µg/mL: 100%
[4]; 12 h
  number of capillary structures (mean ± SD): 0.0 ± 0.0
  inhibition at 10 µg/mL: 100%
[5]; [8]
  tumor weight: 0.23 ± 0.07 g
[5]; mouse, in vivo
  body weight of animals, in words: greatly reduced the body weight
  toxic and side effects, in words: more apparent toxic and side effects
[6]; [8]
  tumor inhibition rate: 68.21%
  tumor weight: 0.28 ± 0.07 g
[6]; mouse, in vivo
  body weight of animals, in words: greatly reduced the body weight
  toxic and side effects, in words: more apparent toxic and side effects
[7]; 10 mg/kg/time once every three days, hypodermic, 14 days
  tumor weight: 0.77 ± 0.62 g and 0.98 ± 0.30 g
[7]; mouse, in vivo
  body weight of animals, in words: greatly reduced the body weight
  toxic and side effects, in words: severer toxic and side effects
